{"source": "patent US20260022100A1", "about": "“NAV1.8 INHIBITOR” (Wuhan Humanwell Innovative Drug Research and Development …, priority 2022, published 2026)", "key": {"[1]": {"biological_target": "Nav1.8 ion channel (Homo sapiens (Human), UniProt Q9Y5Y9)", "experiment": "Inhibitory activity on Nav1.8 ion channel, whole-cell patch-clamp on HEK293/Nav1.8", "type": "cell-based", "conditions": "HEK293/Nav1.8, whole-cell patch clamp, holding -80 mV, 1 μM TTX", "procedure": "Reagents were purchased from Sigma (St. Louis, MO) except NaOH and KOH for acid-base titration. The final concentrations of the test compounds were all prepared on the day of the test and then dissolved in an extracellular fluid. The extracellular fluid (mM) was NaCl, 137; KCl, 4; CaCl2), 1.8; MgCl2, 1; HEPES, 10; glucose 10; and pH 7.4 (NaOH titration). All test and control compound solutions contained 1 μM TTX. The intracellular fluid (mM) was: aspartic acid, 140; magnesium chloride, 2; ethylene glycol tetraacetic acid (EGTA), 11; and N-2-hydroxyethylpiperazine-N′-2-ethanesulfonic acid (HEPES), 10. The pH was adjusted to 7.4 with cesium hydroxide.\nThe test compounds were dissolved in dimethylsulfoxide (DMSO) at a concentration of 9 mM. On the day of the test, the compounds were then dissolved in the extracellular fluid and prepared into the required concentration.\nThe cells were transferred to a perfusion chamber and perfusion was carried out using the extracellular fluid. The intracellular fluid was thawed on the day of the experiment. The electrodes were produced by pulling with PC-10 (Narishige, Japan). Whole-cell patch-clamp recording was carried out. Noise was filtered at one fifth of the sampling frequency. The intracellular fluid with ¼ length of the electrode tube was added into the electrode, and the electrode was installed on a probe. The required Protocol was set, the interface was adjusted to Membrane test, and Stage was adjusted to Bath. A positive pressure was applied in the electrode. The tip of the electrode was contacted with the cell. The three-way valve of the air extractor was adjusted to a three-way state. A negative pressure was then applied to the electrode, so that the electrode and the cell formed a high-resistance seal. Stage was adjusted to Patch, and leak was controlled within −200 pA. A negative pressure was successively applied, so that cell membranes were broken, and a current path was formed. Perfusion was carried out by opening the suction filtration device and the extracellular fluid valve. The cell current was observed, and administration was started when the cell current was stable (at least 3 sweep current curves were overlapped). Administration was performed from low concentration to high concentration. The administration time of each concentration was not less than 2 min, and when the current was stable, the concentration was changed for administration.\nFor administration of the test samples, perfusion was carried out using a perfusion system utilizing the self gravity. […] During the period, the CV % of all peak current amplitudes should be less than 10% to exclude up and down fluctuations of the initial current. The average of the peak current amplitudes recorded for the last 10 times during the initial recording served as the current peak of the negative control. After the initial current was stable, the test samples were dosed starting from a low concentration until the 10 recorded peak currents were again stable or the peak currents were “constant” after and before administration after continuous administration for 5 min. We defined the following two cases as “stable” or “constant”: 1) if the absolute average of the peak current for 10 consecutive scans exceeded 200 pA and the CV value was less than 10%, 2) or the average of the peak current for 10 consecutive scans was between 200 pA and 50 pA and the CV value was less than 30%. The next detection of higher concentration was then given.\nThe average of the peak current of the last 10 scans of each concentration was taken as the peak current for that concentration for data analysis. If the stable state was not reached within 5 min, the peak current average of the last 10 scans at that time was used for data analysis as the peak current for that concentration. At the same time, the cells were discarded and no longer used for detection of higher concentration. At least two cells were tested per concentration of the compounds. […]"}, "[2]": {"experiment": "Pharmacokinetic assay in mice", "type": "in vivo", "conditions": "male, ICR, mouse, plasma, oral intragastric administration, 10 mg/kg", "procedure": "Pharmacokinetic assay in mice was performed, wherein the mice used were 3 male ICR mice and fasted overnight. The mice were orally intragastrically dosed with the medicament (10 mg/kg). Blood was collected before administration and at 15 min, 30 min and 1 h, 2 h, 4 h, 6 h, 8 h, and 24 h after administration. Blood samples were centrifuged at 8000 rpm for 6 min at 4° C., and plasma was collected and stored at −20° C. The plasma at each time point was taken, and 3-5 times its amount of an acetonitrile solution containing an internal standard was added for mixing. The mixture was vortexed for 1 min and then centrifuged at 13000 rpm at 4° C. for 10 min. The supernatant was taken, and 3 times its amount of water was added for mixing. A proper amount of the resulting mixture was taken for LC-MS/MS analysis. The major pharmacokinetic parameters were analyzed using a non-compartmental model in the WinNonlin 7.0 software."}}, "data": [{"smiles": "O=C(Nc1cnc[n+]([O-])c1)c1cc(Cl)c(C(F)(F)F)cc1Oc1ccc(OC(F)(F)F)cc1", "note": "[Compound I-2, 5-(5-Chloro-2-(4-(trifluoromethoxy)phenoxy)-4-(trifluoromethyl)benzamido)pyrimidine-1-oxide]", "values": [{"measurement": "IC50", "setting": "[1]", "value": 11, "unit": "nM"}]}, {"smiles": "O=C(Nc1ccc[n+]([O-])c1)c1cc(Cl)c(C(F)(F)F)cc1Oc1ccc(SC(F)(F)F)cc1", "note": "[Compound I-15]", "values": [{"measurement": "AUC(0-t)", "setting": "[2]", "value": 539000, "unit": "ng·h/mL"}, {"measurement": "Cmax", "setting": "[2]", "value": 30000, "unit": "ng/mL"}, {"measurement": "Tmax", "setting": "[2]", "value": 8, "unit": "h"}, {"measurement": "half-life", "setting": "[2]", "value": 34, "unit": "h"}]}, {"smiles": "COc1cc(OC(F)(F)F)ccc1Oc1cc(Cl)c(Cl)cc1C(=O)Nc1cnc[n+]([O-])c1", "note": "[Compound I-18, 5-(4,5-dichloro-2-(2-methoxy-4-(trifluoromethoxy)phenoxy)benzamido)pyrimidine 1-oxide]", "values": [{"measurement": "AUC(0-t)", "setting": "[2]", "value": 3340, "unit": "ng·h/mL"}, {"measurement": "Cmax", "setting": "[2]", "value": 1390, "unit": "ng/mL"}, {"measurement": "Tmax", "setting": "[2]", "value": 0.5, "unit": "h"}, {"measurement": "half-life", "setting": "[2]", "value": 1.22, "unit": "h"}, {"measurement": "IC50", "setting": "[1]", "value": 2.4, "unit": "nM"}]}, {"smiles": "O=C(Nc1cnc[n+]([O-])c1)c1c(Oc2ccc(OC(F)(F)F)cc2)cc(Cl)c(Cl)c1F", "note": "[Compound I-19, 5-(3,4-Dichloro-2-fluoro-6-(4-(trifluoromethoxy)phenoxy)benzamido)pyrimidine 1-oxide]", "values": [{"measurement": "AUC(0-t)", "setting": "[2]", "value": 19200, "unit": "ng·h/mL"}, {"measurement": "Cmax", "setting": "[2]", "value": 8880, "unit": "ng/mL"}, {"measurement": "Tmax", "setting": "[2]", "value": 0.5, "unit": "h"}, {"measurement": "half-life", "setting": "[2]", "value": 2, "unit": "h"}, {"measurement": "IC50", "setting": "[1]", "value": 0.98, "unit": "nM"}]}, {"smiles": "O=C(Nc1cnc[n+]([O-])c1)c1c(Oc2ccc(OC(F)(F)F)cc2)ccc(C(F)(F)F)c1F", "note": "[Compound I-20, 5-(2-fluoro-6-(4-(trifluoromethoxy)phenoxy)-3-(trifluoromethyl)benzamido)pyrimidine 1-oxide]", "values": [{"measurement": "AUC(0-t)", "setting": "[2]", "value": 96200, "unit": "ng·h/mL"}, {"measurement": "Cmax", "setting": "[2]", "value": 8010, "unit": "ng/mL"}, {"measurement": "Tmax", "setting": "[2]", "value": 4, "unit": "h"}, {"measurement": "half-life", "setting": "[2]", "value": 2.87, "unit": "h"}]}, {"smiles": "[2H]C([2H])([2H])Oc1cc(F)ccc1Oc1cc(Cl)c(Cl)cc1C(=O)Nc1cnc[n+]([O-])c1", "note": "[Compound I-21, 5-(4,5-dichloro-2-(4-fluoro-2-(trideuteromethoxy)phenoxy)benzamido)pyrimidine 1-oxide]", "values": [{"measurement": "AUC(0-t)", "setting": "[2]", "value": 2490, "unit": "ng·h/mL"}, {"measurement": "Cmax", "setting": "[2]", "value": 1400, "unit": "ng/mL"}, {"measurement": "Tmax", "setting": "[2]", "value": 0.5, "unit": "h"}, {"measurement": "half-life", "setting": "[2]", "value": 1.32, "unit": "h"}]}, {"smiles": "O=C(Nc1ccc[n+]([O-])c1)c1cc(Cl)c(Cl)cc1Oc1ccc(F)c2c1OC(F)(F)O2", "note": "[Compound I-22, 3-(4,5-Dichloro-2-((2,2,7-trifluorobenzo[d][1,3]dioxol-4-yl)oxy)benzamido)-pyridine 1-oxide]", "values": [{"measurement": "AUC(0-t)", "setting": "[2]", "value": 12700, "unit": "ng·h/mL"}, {"measurement": "Cmax", "setting": "[2]", "value": 3090, "unit": "ng/mL"}, {"measurement": "Tmax", "setting": "[2]", "value": 1, "unit": "h"}, {"measurement": "half-life", "setting": "[2]", "value": 2.88, "unit": "h"}, {"measurement": "IC50", "setting": "[1]", "value": 8.15, "unit": "nM"}]}, {"smiles": "O=C(Nc1cnc[n+]([O-])c1)c1c(Oc2ccc(OC(F)F)cc2)cc(C(F)(F)F)c(Cl)c1F", "note": "[Compound I-25, 5-(3-Chloro-6-(4-(difluoromethoxy)phenoxy)-2-fluoro-4-(trifluoromethyl)benzamido)pyrimidine 1-oxide]", "values": [{"measurement": "IC50", "setting": "[1]", "value": 2.9, "unit": "nM"}]}, {"smiles": "[2H]C([2H])([2H])Oc1cc(F)c(F)cc1Oc1cc(C(F)(F)F)c(Cl)c(F)c1C(=O)Nc1cnc[n+]([O-])c1", "note": "[Compound I-28, 5-(3-chloro-6-(4,5-difluoro-2-(methoxy-d3)phenoxy)-2-fluoro-4-(trifluoromethyl)benzamido)pyrimidine 1-oxide]", "values": [{"measurement": "IC50", "setting": "[1]", "value": 1.3, "unit": "nM"}]}, {"smiles": "Cc1cc(F)ccc1Oc1cc(C(F)(F)F)c(Cl)cc1C(=O)Nc1cnc[n+]([O-])c1", "note": "[Compound I-31, 5-(5-chloro-2-(4-fluoro-2-methylphenoxy)-4-(trifluoromethyl)benzamido)pyrimidine 1-oxide]", "values": [{"measurement": "IC50", "setting": "[1]", "value": 9.75, "unit": "nM"}]}, {"smiles": "O=C(Nc1ccc[n+]([O-])c1)c1c(Oc2ccc(F)c3c2OC(F)(F)O3)cc(Cl)c(Cl)c1F", "note": "[Compound I-32, 3-(3,4-Dichloro-2-fluoro-6-((2,2,7-trifluorobenzo[d][1,3]dioxol-4-yl)oxy)benzamido)pyridine-1-oxide]", "values": [{"measurement": "IC50", "setting": "[1]", "value": 0.71, "unit": "nM"}]}, {"smiles": "Cc1cc(F)ccc1Oc1cc(C(F)(F)F)c(Cl)c(F)c1C(=O)Nc1cnc[n+]([O-])c1", "note": "[Compound I-34, 5-(3-chloro-2-fluoro-6-(4-fluoro-2-methylphenoxy)-4-(trifluoromethyl)benzamido)pyrimidine 1-oxide]", "values": [{"measurement": "IC50", "setting": "[1]", "value": 1.4, "unit": "nM"}]}]}
